In patent publication US20250243427A1, “PRECURSORS OF PHENOLIC FRAGRANT COMPOUNDS” (GIVAUDAN SA, priority 2021, published 2025):
Entries after “also recorded” stand apart in the source; their conditions may differ.

Legend:
[1] = Biodegradability, manometric respirometry test (OECD 301F); design: key to result (biodegradable class; cell wraps to 'biodegradable'): A compound is readily biodegradable, if the pass level is reached within 10 days within the 28-day period of the test; If the pass level is obtained after 28-day period of the test, the compound can be classified as inherently biodegradable; conditions: for result (biodegradable class; cell wraps to 'biodegradable'): 28-day test, 10-day window; for Biodegradation in %: pass level 60% oxygen consumption of theory
Description: The results of the biodegradability assessment by the manometric respirometry test (OECD guideline for the testing of materials No. 301F, Paris 1992) are summarized in Table 5.
A compound can be classified biodegradable, if it reaches the pass level of 60% oxygen consumption of theory required for complete mineralization.
A compound is readily biodegradable, if the pass level is reached within 10 days within the 28-day period of the test. The 10-day window begins when the degree of biodegradation has reached 10%. If the pass level is obtained after 28-day period of the test, the compound can be classified as inherently biodegradable.

[2] = Odor description on paper blotter; conditions: 1% solution in EtOH on paper blotter, 24 h
[3] = Washtest and sensory evaluation of fabric washed with liquid detergent; conditions: for odour intensity, wet: Table 2 (position of double bond); for odour intensity, wet / odor intensity, wet: wet fabric, scale 0 (odorless) to 5 (extremely strong); for odour intensity, 1 day / odour intensity, 4 days: Table 2; for odour intensity, 1 day / odour intensity, 4 days / odor intensity, 1 day / odor intensity, 4 days: scale 0 to 5
Description: The wet and line-dried fabric (1 and 4 days) was assessed by a panel of 4-6 experts with regard to odor intensity and quality. The odor intensity was recorded on an intensity scale of 0 (odorless) to 5 (extremely strong).
The odour intensity was recorded on an intensity scale of 0 (odorless) to 5 (extremely strong).
Liquid detergent samples were prepared and used in washtests and subsequent sensory evaluation of the washed and dried fabric as described in Example 45a and c. The odor intensity was recorded on an intensity scale of 0 (odorless) to 5 (extremely strong).

[4] = Malodour reduction on washed fabric, trained sensory panel; conditions: 4 day dry cloth washed with unit dose containing 2% of a 10% solution in trietylcitrate, + Male Sweat Malodour, 0-100 line scale; for Perceived Fragrance Intensity: control set at 0; for Perceived Malodour Intensity: malodour control set at 40
Description: Fabrics (18 cm×14 cm cotton jersey) were stripped before use. They were then washed in European washing machines (40° C.—1,000 spin/min) with one unit dose (65 g) used per wash load. The unit dose contained 2% of a 10% solution of the compound of formula 1 in trietylcitrate. • a) Compound of example 33 • b) Compound of example 34 • c) Compound of example 1
The total wash load was 1.6 kg made up of test cloths and hand towels (100% cotton) as ballast. The cloth was line dried and left overnight in a perfume free room at 25° C., left to hang for 3 days and then wrapped in foil the day prior to the test (day 3). 30 minutes before the assessment, 50 μL of the pure Male Sweat malodour was placed on top of a cotton pad and introduced into a 500 ml powder jar. One cotton jersey square was then placed over the top of the powder jar and secured with a rubber band. Every sample tested was coded with a random code number.
The malodour and fragrance perceived intensities were assessed by the trained sensory panel using a 0-100 line scale. All malodour and fragrance perceived intensities were scaled against the malodour control sample. The malodour perceived intensity was set at 40 for Male Sweat malodour and the fragrance perceived intensity was set at 0.
The order of samples assessed by the panelists was pre-determined using a balanced randomisation. The samples were assessed in a sequential monadic way. The products were assessed twice by 14 panelists, thus giving 28 assessments per sample.
Before analysis, the data was checked for outliers and extreme violations to normality.
Reliability of the data was checked and data of panelists with poor discrimination, consensus or repeatability may have been removed from the analysis. The data was analysed using analysis of variance (ANOVA). A 5% significance level (95% confidence level) was used. Separate ANOVAs were carried out for malodour and fragrance intensity. The ANOVA have product, panelist, and replicate as factors. Pairwise comparisons of the products were done using the Benjamini-Hochberg correction for multiple testing. The estimated product means are reported.

[5] = Color stability in liquid detergent, visual inspection; type: physicochemical; conditions: 0.2% by weight in unperfumed liquid detergent base, stirred 24 h at room temperature; compared to unperfumed base sample (C)
Description: The above prepared samples were visually inspected in comparison to an unperfumed base sample (sample C).

[6] = Application in shampoo base, odour on hair swatch; conditions: 0.2% by weight in clear hair shampoo base; dried hair swatch 1 and 3 days; panel of 7 experts
Description: A hair shampoo sample (20 g) was prepared by adding 0.2% by weight of 3-ethoxy-4-(hex-3-en-1-yloxy)benzaldehyde (compound of example 3) to unperfumed clear hair shampoo base and mixing on a bottle roller for 24 h at room temperature. An odour-neutral human hair swatch was wetted with warm tap water and lathered delicately with 2 mL of the above hair shampoo sample for 30 sec by hand wearing gloves. The lathered hair swatch was left in a plastic bowl for 2 min, then rinsed under running tap water for 20 sec. After removing excess water by squeezing the hair swatch between two fingers, it was left to dry in open air. The odour of the wet and dried hair swatch (1 and 3 days) was assessed by a panel of 7 experts.

[7] = liquid detergent washtest, dry fabric 1 day
[8] = liquid detergent washtest, dry fabric 4 days
[9] = Table 3, liquid detergent washtest
[10] = Table 3, liquid detergent washtest, dry fabric 1 day
[11] = Table 3, liquid detergent washtest, dry fabric 4 days

SMILES	result (biodegradable class; cell wraps to 'biodegradable') [1]	Biodegradation in % [1]	Odor description [2]	odor on dry fabric [3, 9]	odor intensity, 1 day [3, 10]	odor intensity, 4 days [3, 11]	odor intensity, wet [3, 9]	also measured
CC=CCCOc1ccc(C=O)cc1OCC [Example 33, 3-ethoxy-4-(pent-3-en-1-yloxy)benzaldehyde]	inherently	66%	mild, powdery, vanilla, peppery	–	–	–	–	odour intensity, wet ([3]; liquid detergent washtest): 1.1; odour intensity, 1 day [3, 7]: 3.2; odour intensity, 4 days [3, 8]: 3.8; Perceived Fragrance Intensity [4]: 22.3; Perceived Malodour Intensity [4]: 26.5
CCOc1cc(C=O)ccc1O [Ethylvanillin (A), 3-ethoxy-4-hydroxybenzaldehyde, reference compound]	–	–	–	–	–	–	–	Color of liquid detergent sample (visual inspection) [5]: strong brown-purple coloration
C=CCc1ccc(OCC/C=C\CC)c(OC)c1 [Example 10, (Z)-4-allyl-1-(hex-3-en-1-yloxy)-2-methoxybenzene]	–	–	slightly spicy	spicy, clove,; also recorded: gingerbread	2.4	2.5	1.6	–
CCOc1cc(C=O)ccc1OC1CC=CC1 [Example 20, 4-(cyclopent-3-en-1-yloxy)-3-ethoxybenzaldehyde]	inherently	74%	vanilla (powdery, spicy, creamy)	vanilla, powdery	3.0	3.7	–	–
C/C=C/c1ccc(OCC/C=C\CC)c(OC)c1 [Example 11, 1-(((Z)-hex-3-en-1-yl)oxy)-2-methoxy-4-((E)-prop-1-en-1-yl)benzene]	–	–	slightly spicy woody	spicy, vanilla	1.9	3.0	2.0	–
CCOc1cc(C=O)ccc1OCCC=C(C)C [Example 34, 3-ethoxy-4-((4-methylpent-3-en-1-yl)oxy)benzaldehyde]	inherently	69%	powdery, vanilla, chocolate	vanilla	3.3	3.4	1.5	Perceived Fragrance Intensity [4]: 31.1; Perceived Malodour Intensity [4]: 20.6
CCC=CCCOc1ccc(C=O)cc1OCC [Example 3, 3-ethoxy-4-(hex-3-en-1-yloxy)benzaldehyde]	–	–	powdery sweet (vanilla)	–	–	–	–	odour perceived on dry hair swatch [6]: Five out of seven experts perceived a vanilla note
CC/C=C\CCOc1ccc(C=O)cc1OC [Example 8, (Z)-4-(hex-3-en-1-yloxy)-3-methoxybenzaldehyde]	readily	92%	powdery (vanilla) slightly green	–	–	–	–	–
CC/C=C\CCOc1cc(C)c(C(=O)OC)c(O)c1C [Example 9, methyl (Z)-4-(hex-3-en-1-yloxy)-2-hydroxy-3,6-dimethylbenzoate]	–	–	powdery mossy (Evernyl)	oakmoss	1.7	3.3	1.0	–
CC(=O)CCc1ccc(OCCC=C(C)C)cc1 [Example 18, 4-(4-((4-methylpent-3-en-1-yl)oxy)phenyl)butan-2-one]	readily	91%	sweet fruity (raspberry ketone)	–	–	–	–	–
CC/C=C\CCOc1ccc(CCC(C)=O)cc1 [Example 6, (Z)-4-(4-(hex-3-en-1-yloxy)phenyl)butan-2-one]	readily	82%	raspberry	raspberry	2.8	3.6	3.0	–
CC/C=C\CCOc1ccc(C=O)cc1OCC [Example 1, (Z)-3-ethoxy-4-(hex-3-en-1-yloxy)benzaldehyde]	inherently	61%	powdery (vanillin) creamy	–	–	–	–	Color of liquid detergent sample (visual inspection) [5]: optically identical to the unperfumed base; odor released from washed T-shirts ([3]; 0.2% in liquid detergent, 40° C. machine wash, after 1 and 4 days): strong vanilla, sweet, powdery and creamy fragrance; odor intensity, 1 day ([3]; Table 1, 0.2% in liquid detergent, 40° C. machine wash, line-dried fabric 1 day): 3; odor intensity, 4 days ([3]; Table 1, 0.2% in liquid detergent, 40° C. machine wash, line-dried fabric 4 days): 3.7; odor intensity, wet ([3]; Table 1, 0.2% in liquid detergent, 40° C. machine wash): 1.3; odour intensity, wet ([3]; liquid detergent washtest): 3.2; odour intensity, 1 day [3, 7]: 3.2; odour intensity, 4 days [3, 8]: 3.6; Perceived Fragrance Intensity [4]: 18.3; Perceived Malodour Intensity [4]: 29.5
